# Experimental data published in patent publication US6420391B1, “Fused thiophone derivatives and drugs containing the same as the active ingredient” (Ono Pharmaceutical Co., Ltd., priority 1998, dated 2002).
# Structures can show the parent of a compound that is named as a salt.
# How the values were obtained:
# Format in all cases: cell-based
# [1] = tested on: IL-6 production in A549 cells (human lung epithelial cell line); test: Inhibitory activity on IL-6 production (TNF-α-stimulated A549 cells, ELISA); conditions: TNF-α stimulation, incubation for 24 hours, IL-6 in supernatant by ELISA
# Experimental: (§1) (1) Assaying Inhibitory Activity on IL-6 Production and Cellular Toxicity
# (§2) 1.5×10^4 of A549 cells (human lung epithelial cell line) were suspended in dalbeco-modified eagle medium (DMEM) containing 0.5% fetus bovine serum (abbreviated as FBS)˜(100 μl) and incubated in 96 well-microplate over day and night. The test compound dissolved in various kinds of solvents at various concentrations (20 μl) and Tumor Necrosis Factor-α (TNF-α (Genzyme Co, Cat. No. TNF-H)) dissolved in DMEM at the concentration of 12.5 ng/ml (80 μl) were added thereto. After incubation for 24 hours, the supernatant (200 μl) was recovered to assay the quantity of IL-6 using Enzyme Linked Immuno […] Assay (ELISA) Method (R&D Systems Co., Cat. No. D6050), to calculate inhibitory activity of the test compound and determine 50% inhibitory concentration (IC50). To the cells from which the supernatant was removed, a solution of brom 3-(4,5-dimethyl-2-thiazolyl)-2,5-diphenyl-2H-tetrazolinium (abbreviated as MTT (Dojin Chemical Laboratory, Cat. No. 345-01821)) dissolved in DMEM containing 10% FBS at the concentration of 0.5 mg/ml (100 μl) was added and incubated for 3 hours. After removing MTT solution, methanol (100 μl) was added thereto. After lyse the cells, the intensity of absorbance on 570 nm as a control of 690 nm was determined to assay cellular toxicity of the test compound.
# [2] = tested on: A549 cells (human lung epithelial cell line); test: Cellular toxicity in A549 cells (MTT); conditions: at 10 μM
# Experimental: as §1, §2
# [3] = tested on: IL-12 production in peripheral monocyte prepared from healthy human blood; test: Inhibitory activity on IL-12 production (IFN-γ/LPS-stimulated peripheral monocyte, ELISA); conditions: IFN-γ 24 hours then LPS 20 hours, IL-12 in supernatant by ELISA
# Experimental: (§3) (2) Assaying Inhibitory Activity on IL-12 Production and Cellular Toxicity
# (§4) 2.0×10^5 of peripheral monocyte prepared from healthy human blood by Ficole gravity centrifugation method (Pharmacia Biotech Co, Cat. No. 17-1440-02) were suspended in RPMI1640 medium containing 10% FBS (170 μl). The test compound dissolved in various kinds of solvents at the various concentrations (10 μl) and 6000 units/ml of Interferon-γ (IFN-γ (Serotec Co, Cat. No. PHP050)) (10 μl) dissolved in RPMI1640 medium containing 10% FBS. After incubation for 24 hours in 96 well-microplate, lipopolysaccharide (6 μg/ml) dissolved in RPMI1640 medium containing 10% FBS (LPS (Difco Co., Cat. No. 3120-25-0)) (10 μl) was added thereto. After incubation for 20 hours, the supernatant (150 μl) was recovered to assay the quantity of IL-12 using ELISA Method (R&D Systems Co, Cat. No. D1200), calculate for inhibitory activity of the test compound and determine 50% inhibitory concentration (IC50) (see J. Exp. Med., 183, 147 (1996)). To the cells from which the supernatant (150 μl) was removed, a solution of MTT dissolved in RPMI1640 medium containing 10% FBS at 1 mg/ml (50 μl) was added and incubated for 3 hours. 2-Propanol containing 0.04N HCl (100 μl) was added thereto. After lyse the cells, the intensity of absorbance on 570 nm as a control of 690 nm was determined to assay cellular toxicity of the test compound.
# [4] = tested on: peripheral monocyte prepared from healthy human blood; test: Cellular toxicity in peripheral monocyte (MTT); conditions: at 1 μM
# Experimental: as §3, §4
SMILES,IC50 [1],cellular toxicity [2],IC50 [3],cellular toxicity [4]
"O=S1(=O)CC(S(=O)(=O)c2ccccc2)c2c(OCc3cccnc3)cccc21 (stereo not shown) [Example 20(4) free compound, 4-(Pyridin-3-ylmethyl) oxy-3-phenylsulfonyl-2,3-dihydro-1,1-dioxidebenzo[b]thiophene]",4.4 µM,no cellular toxicity,,
"O=S1(=O)CC(S(=O)(=O)c2ccccc2)c2c(OCc3cccnc3)cccc21 (stereo not shown) [Example 20(4) hydrochloride, 4-(Pyridin-3-ylmethyl) oxy-3-phenylsulfonyl-2,3-dihydro-1,1-dioxidebenzo[b]thiophene]",,,0.11 µM,no cellular toxicity
